ChEMBL document CHEMBL3045537, “Synthesis of 2-(aryl)-5-(arylidene)-4-thiazolidinone derivatives with potential analgesic and anti-inflammatory activity” (2012)

Experiments:
Assay type in all cases: functional
Rattus norvegicus [1] = assay: Anti-inflammatory activity inRattus norvegicus albino (rat) assessed as reduction of carrageenan-induced paw edema at 10 mg/kg, po administered 1 hr prior challenge measured after 4 hr post challenge by plethismometer; design: scale not given: the % may be the effect or the level left
Mus musculus = assay: Analgesic activity in Mus musculus (mouse) assessed as protection against acetic acid-induced writhing at 10 mg/kg, po administered 30 min prior challenge measured for 20 min
Rattus norvegicus [2] = assay: Anti-inflammatory activity inRattus norvegicus albino (rat) assessed as reduction of carrageenan-induced paw edema at 10 mg/kg, po administered 1 hr prior challenge measured after 2 hr post challenge by plethismometer; design: scale not given: the % may be the effect or the level left

Row | Structure (SMILES) | Activity (Rattus norvegicus [1]) [%] | Activity (Mus musculus) [%] | Activity (Rattus norvegicus [2]) [%]
1 | COc1ccc(C2S/C(=C\c3cccc(Br)c3)C(=O)N2NC(=O)c2ccc(-c3ccccc3)cc2)cc1 (configuration not stated) | 69.05 | 33.35 | 46.75
2 | COc1ccc(/C=C2\SC(c3ccc(OC)cc3)N(NC(=O)c3ccc(-c4ccccc4)cc3)C2=O)cc1 (configuration not stated) | 70.28 | 40.43 | 49.54
3 | COc1ccc(/C=C2\SC(c3cccc([N+](=O)[O-])c3)N(NC(=O)c3ccc(-c4ccccc4)cc3)C2=O)cc1 (configuration not stated) | 48.92 | 37.93 | 37.78
4 | O=C(NN1C(=O)/C(=C/c2cccc([N+](=O)[O-])c2)SC1c1cccc([N+](=O)[O-])c1)c1ccc(-c2ccccc2)cc1 (configuration not stated) | 51.37 | 43.35 | 39.63
5 | O=C(NN1C(=O)/C(=C/c2ccccc2)SC1c1cccc([N+](=O)[O-])c1)c1ccc(-c2ccccc2)cc1 (configuration not stated) | 47.99 | 40.85 | 38.09
6 | O=C(NN1C(=O)/C(=C/c2ccc(Cl)cc2)SC1c1cccc([N+](=O)[O-])c1)c1ccc(-c2ccccc2)cc1 (configuration not stated) | 49.23 | 46.25 | 39.94
7 | COc1ccc(C2S/C(=C\c3cccc([N+](=O)[O-])c3)C(=O)N2NC(=O)c2ccc(-c3ccccc3)cc2)cc1 (configuration not stated) | 71.21 | 36.25 | 47.68
8 | O=C(NN1C(=O)/C(=C/c2cccc(Br)c2)SC1c1cccc([N+](=O)[O-])c1)c1ccc(-c2ccccc2)cc1 (configuration not stated) | 50.78 | 37.5 | 38.7
9 | O=C(NN1C(=O)/C(=C/c2cccc(Br)c2)SC1c1ccc(F)cc1)c1ccc(-c2ccccc2)cc1 (configuration not stated) | 52.08 | 37.5 | 41.76
10 | COc1ccc(C2S/C(=C\c3ccc(Cl)cc3)C(=O)N2NC(=O)c2ccc(-c3ccccc3)cc2)cc1 (configuration not stated) | 71.83 | 32.1 | 57.9
11 | O=C(NN1C(=O)/C(=C/c2ccc(Cl)cc2)SC1c1ccc(Cl)cc1)c1ccc(-c2ccccc2)cc1 (configuration not stated) | 55.34 | 22.93 | 46.14
12 | COc1ccc(/C=C2\SC(c3ccc(Cl)cc3)N(NC(=O)c3ccc(-c4ccccc4)cc3)C2=O)cc1 (configuration not stated) | 53.87 | 29.6 | 45.83
13 | O=C([O-])Cc1ccccc1Nc1c(Cl)cccc1Cl.[Na+] [DICLOFENAC SODIUM] | 79.26 | 68.5 | 54.18
14 | COc1ccc(/C=C2\SC(c3ccc(F)cc3)N(NC(=O)c3ccc(-c4ccccc4)cc3)C2=O)cc1 (configuration not stated) | 53.62 | 37.93 | 45.82
15 | O=C(NN1C(=O)/C(=C/c2cccc([N+](=O)[O-])c2)SC1c1ccc(Cl)cc1)c1ccc(-c2ccccc2)cc1 (configuration not stated) | 56.35 | 27.5 | 45.21
16 | O=C(NN1C(=O)/C(=C/c2ccc(Cl)cc2)SC1c1ccc(F)cc1)c1ccc(-c2ccccc2)cc1 (configuration not stated) | 52.92 | 46.25 | 43.64
17 | COc1ccc(C2S/C(=C\c3ccccc3)C(=O)N2NC(=O)c2ccc(-c3ccccc3)cc2)cc1 (configuration not stated) | 68.74 | 38.35 | 45.83
18 | O=C(NN1C(=O)/C(=C/c2ccccc2)SC1c1ccc(Cl)cc1)c1ccc(-c2ccccc2)cc1 (configuration not stated) | 55.11 | 20.43 | 48.92
19 | O=C(NN1C(=O)/C(=C/c2cccc(Br)c2)SC1c1ccc(Cl)cc1)c1ccc(-c2ccccc2)cc1 (configuration not stated) | 54.8 | 17.93 | 44.56
